From patent US9650332B1, “Prodrug of probucol and method for preparing the same” (priority 2016, dated 2017)

Assay: Pharmacokinetic studies of the prodrugs of probucol in rats (oral gavage, plasma LC/MS/MS)
Format: in vivo
Conditions: male, Sprague Dawley, rat, 20 mg/kg prodrug by oral gavage, overnight fasting, analyte: prodrug; for AUC(0-t): read-out: AUC0-t of the prodrug in blood; for Cmax: read-out: Cmax of the prodrug in blood; for Tmax: read-out: tmax of the prodrug in blood
Procedure: Four different kinds of probucol's prodrugs were prepared based on the example 1, 2, 3 and 4 to evaluate their pharmacodynamic and pharmacokinetic characteristics in rats.
Three Sprague Dawley Male Rats were used in each experiment for each prodrug. The laboratory animal models are provided by Shanghai Super-B&K laboratory animal Corp. Ltd. (No. Of animal license SYXK(HU)2008-0016).
Weighed 20 mg sample and dissolved it with 1 ml ethanol. Then, in turn, added 1 ml Solutol HS15 and 8 ml pH4.63 acetate buffer to make the final solution with the concentration of 2 mg/ml. The left soup were saved to run quantitative analysis.
Three Sprague Dawley male rats were given the dose of […] (volume: 10 ml/kg) drugs by oral gavage under the condition of overnight fasting.
Blood (volume: 0.1 ml) was drawn at 0.5, 1.0, 2.0, 4.0, 6.0, 8.0, 24.0 hours pre-dose and post-dose respectively to all animal subjects. Saved the blood samples in heparinized tubes and then centrifuged them for 10 minutes at […] at 4° C. The separated plasma was stored at −20° C. All the process including blood collection and blood analysis should be conducted in low temperatures. Standard meals were provided after 2 hours of dosing.
API 4000 QTRAP LC/MS/MS (Applied Biosystems Corporation, US)
LC-20AD HPLC system (Shimadzu Corporation, Japan)
The prodrug and metabolite probucol were measured at the same time. Took 25 ul rat plasma that drawn at different time points after dosing, and then added 50 ul internal standard YX1162 (200 ng/ml, prepared by acetonitrile) and 175 ul acetonitrile, vortex mixed for 3 minutes, and then centrifuged at 13500 rpm for 10 minutes. Took 10 ul supernatant to run LC/MS/MS analysis.
The prodrug and metabolite probucol were measured at the same time. Took 25 ul rat blank plasma, then added 25 ul solution of standard series to make the drug concentration 1.00, 2.00, 5.00, 25.0, 100, 500, 2000, 20000 and 40000 ng/ml. Next, added 50 ul internal standard YX1162 (200 ng/ml, prepared by acetonitrile) and 150 ul acetonitrile, then followed the same protocol shown in 3.4.
Set plasma concentration as X-axis and the ratio of chromatographic peak areas for sample and internal standard as Y-axis, then used weighted least square method (w=1/x^2) to conduct linear regression analysis.

SMILES	AUC(0-t)	Cmax	Tmax
CCOC(=O)OCOc1c(C(C)(C)C)cc(SC(C)(C)Sc2cc(C(C)(C)C)c(O)c(C(C)(C)C)c2)cc1C(C)(C)C [Example 1]	758 ± 204 ng·h/mL	218 ± 26 ng/mL	2.17 ± 1.31 h
CCOC(=O)OC(C)Oc1c(C(C)(C)C)cc(SC(C)(C)Sc2cc(C(C)(C)C)c(O)c(C(C)(C)C)c2)cc1C(C)(C)C (stereo not drawn) [Example 2]	1070 ± 404 ng·h/mL	268 ± 56 ng/mL	2.37 ± 1.41 h
